These results are taken from publication PMC6107785, “Thiodipeptides targeting the intestinal oligopeptide transporter as a general approach to improving oral drug delivery” (European Journal of Medicinal Chemistry, 2018).

Structures can show the parent of a compound that is named as a salt. Where two headings read alike, the source gives them in different places. Peptide text beside a SMILES is read from it.

The conditions of data set [1]: rats; cited from earlier work.
The conditions of data set [2]: humans; cited from earlier work.
For data set [3], the target named is T1, rabbit PepT1 (Oryctolagus cuniculus, UniProt P36836).
T1 construct: expressed in transfected cells; host or cells: Xenopus laevis oocytes
T1 sequence (P36836 1-707): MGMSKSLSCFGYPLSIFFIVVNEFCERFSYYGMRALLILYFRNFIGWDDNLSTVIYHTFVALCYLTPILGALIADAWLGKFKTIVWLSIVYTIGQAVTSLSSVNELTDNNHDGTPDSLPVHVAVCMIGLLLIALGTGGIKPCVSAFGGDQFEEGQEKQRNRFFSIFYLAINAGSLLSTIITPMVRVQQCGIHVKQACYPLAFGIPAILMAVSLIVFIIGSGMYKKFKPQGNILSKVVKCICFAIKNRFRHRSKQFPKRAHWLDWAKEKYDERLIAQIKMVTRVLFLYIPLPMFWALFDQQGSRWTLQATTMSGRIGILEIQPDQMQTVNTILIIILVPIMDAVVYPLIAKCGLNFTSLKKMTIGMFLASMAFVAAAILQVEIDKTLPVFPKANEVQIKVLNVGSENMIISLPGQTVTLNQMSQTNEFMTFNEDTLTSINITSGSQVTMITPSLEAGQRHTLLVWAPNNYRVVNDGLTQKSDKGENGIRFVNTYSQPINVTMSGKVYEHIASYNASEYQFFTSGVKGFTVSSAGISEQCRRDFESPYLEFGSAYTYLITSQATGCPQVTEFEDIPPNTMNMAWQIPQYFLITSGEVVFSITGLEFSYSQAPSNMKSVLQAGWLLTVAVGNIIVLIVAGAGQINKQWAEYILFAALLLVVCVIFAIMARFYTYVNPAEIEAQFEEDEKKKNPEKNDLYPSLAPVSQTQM
The data set can be described thus: Inhibition of radiolabelled D-Phe-L-Gln uptake in Xenopus laevis oocytes expressing rabbit PepT1 (binding affinity). To be noted: oocytes expressing rabbit PepT1, pH 5.5 assay buffer. The procedure: (§1) The Ki, trans-stimulation efflux and Caco-2 assays were performed as described previously.

Data set [4] has as its target T1, rabbit PepT1. Put plainly: Trans-stimulation efflux of [3H]-D-Phe-L-Gln from rabbit PepT1 expressing oocytes. It counts as cell-based. To be noted: 10 mM prodrug, [3H]-D-Phe-L-Gln efflux, compared to GlyGln. The protocol: Trans-stimulation assays were performed using radiolabelled [^3H]-D-Phe-L-Gln efflux from rabbit PepT1 expressing oocytes in the presence of 10 mM pro-drug. As controls, 10 mM Gly-L-Gln (a standard PepT1 substrate) or buffer lacking a substrate (negative control) were used.
as §1

Data set [5] in a line: Stability in rat liver homogenate. The data set is classed as in vitro ADME. Conditions: 37 °C; for half-life at 0.5 mM: male, rat, rat liver homogenate, pH 7.5, 0.5 mM compound, read-out: Rat liver homgenate t1/2 (converted). The procedure:
Fresh rat liver homogenate was prepared by isolating liver from euthanized male rats, according to approved Home Office procedures. The liver was chopped with scissors and rinsed with medium (0.25 M sucrose, 25 mM KCl, 5 mM MgCl2 and 50 mM Tris/HCl, pH7.5) to remove trapped blood. The liver was then homogenized in fresh medium with a loose-fitting dounce-type homogenizer and kept on ice. Liver homogenate was incubated with either 0.5 mM compound 1 or 3, or L-Trp-L-Ala as a positive control, at 37 °C. 250 μl aliquots of the homogenate were taken at 0, 0.25, 0.5, 1, 2, 6 and 24 h. The samples were precipitated by addition an equal volume of 3% perchloric acid and centrifugation at 17000g for 5 min. The perchloric acid was neutralized with 250 μl of 1 M KOH, and the sample subjected to a freeze/thaw cycle to precipitate the KClO4 salt before again being centrifuged. The supernatant was then analyzed by HPLC as for the Caco-2 permeability studies, and the half-life of the compounds calculated according to the method of Vig et al..

Data set [6] in a line: Oral pharmacokinetics in male Sprague-Dawley rats. Conditions: for Cmax / Tmax: rat plasma.
Procedure: Animals were given free access to food and water throughout the study and maintained under a 12-h light/dark cycle with temperature and humidity controlled according to Home Office regulations.
Blood samples (230 μL) were taken from the carotid artery at the following time points and placed in heparinized tubes: predose, 0.25, 0.5, 1, 2, 4, 8 and 24 h post dose. After the final time point the animals were sacrificed by an overdose of anaesthetic.
Blood samples were centrifuged to obtain the plasma, which was transferred to a separate labelled container. Aliquots from the individual time points for the three animals were analyzed singly. 80 μL of plasma was diluted with 20 μL of 1:1 ACN:water, then 800 μL chilled ACN was added, samples briefly vortex mixed and the centrifuged at 13000 rpm for 5 min at 4 °C. 500 μL of the resultant supernatant was further diluted with 500 μL water.
20 μL sample was analyzed by LC-MS/MS using a C18 5 μm Gemini UHPLC column running a gradient of 90% 0.04% acetic acid in water to 90% ACN over 3 min at a flow rate of 0.5 mL min^−1. MS data was acquired under multiple reaction monitoring conditions using a turbo spray ion source. The concentration in the plasma was determined by comparison to standard curves of the administered compound prepared in blank plasma matrices and treated in an identical manner to the samples.
Data set [7] in a line: Caco-2 monolayer apical to basolateral transport. The data set is classed as in vitro ADME. Conditions: human, 2 mM prodrug, mean ± RSD, read-out: Overall Papp. The procedure:
Prodrugs that generated robust trans-stimulated efflux in oocytes were further in a Caco-2 monolayer assay to investigate further the extent and rate of trans-epithelial transport. […] Apical to basolateral transport of 2 mM pro-drug, applied to the apical side, was monitored by high performance liquid chromatography (HPLC) after 1 h. The presence or absence of excess Gly-Gln allowed us to determine both the overall and PepT1 specific permeability (Table 2). […] The PepT1 mediated Papp values are of similar magnitude to known PepT1 (pro)drug substrates.
as §1
(Passage across Caco-2 layers is used to estimate intestinal permeability.)

The conditions of data set [8]: pH 5.5.
Data set [9] addresses T1, rabbit PepT1. Details: method as in PMID 19262922. To be noted: 10 mM prodrug, [3H]-D-Phe-L-Gln efflux; previously reported data ref 16; cited from earlier work.

Consider `CC(C)c1cccc(C(C)C)c1O` [propofol], for which the Oral bioavailability result in [1] and in [2] was “no oral bioavailability” throughout.
Usually Ki stands for a measure of affinity in units of concentration, obtained from inhibition or displacement. With `COc1c(C)c2c(c(O)c1C/C=C(\C)CCC(=O)OC[C@H](NC(=S)[C@H](C)N)C(=O)O)C(=O)OC2` [Compound 11, (S)-2-((S)-2-aminopropanethioamido)-3-((E)-6-(4-hydroxy-6-methoxy-7-methyl-3-oxo-1,3-dihydroisobenzofuran-5-yl)-4-methylhex-4-enoyloxy)propanoic acid], affinity at rabbit PepT1 [3] was put at a Ki of 210 ± 80 µM. For the same molecule, the “Trans-stimulated efflux?” value on rabbit PepT1 [4] is “only weakly triggered efflux and Weak”.
What is called Cmax is the highest concentration seen after dosing. Usually AUC stands for concentration integrated over time. The Tmax is the time from dosing to the highest level. Consider `CC(C)c1cccc(C(C)C)c1OC(=O)C[C@H](NC(=S)[C@H](C)N)C(=O)O` [Compound 3, (S)-2-((S)-2-Amino-thiopropionylamino)-succinic acid 4-(2,6-diisopropyl-phenyl) ester], for which the Ki on rabbit PepT1 [3] amounted to 920 ± 190 µM. Also, the “Trans-stimulated efflux?” value at rabbit PepT1 [4] is “Yes”. Further, in data set [5] (0.5 mM compound), the “Rat liver homgenate t1/2” value came to 7.3 h. Further, in data set [5], the half-life at 0.5 mM was 7 h. Moreover, the Cmax in data set [6] (3 at 7.6 mg kg^−1 oral, assayed compound intact 3) was found to be 16300 ± 1800 ng/mL; in data set [6] (male, Sprague-Dawley, rat, plasma, po, 7.6 mg/kg, CMax, 3 at 7.6 mg kg^−1 oral, assayed compound intact 3), 16700 ng/mL. The same molecule yielded an AUC in data set [6] (male, Sprague-Dawley, rat, plasma, po, 7.6 mg/kg) of 3200 ± 1400 ng·h/mL. Besides, the Tmax in [6] (male, Sprague-Dawley, rat, plasma, po, 7.6 mg/kg, 3 at 7.6 mg kg^−1 oral, assayed compound intact 3) is 5.2 ± 0.8 h.
`CC(C)NC[C@@H](COc1ccc(CC(N)=O)cc1)OC(=O)C[C@H](NC(=S)[C@H](C)N)C(=O)O` [Compound 8, (S)-4-((S)-3-(4-(2-amino-2-oxoethyl)phenoxy)-1-(isopropylamino)propan-2-yloxy)-2-((S)-2-aminopropanethioamido)-4-oxobutanoic acid] gave a Ki at rabbit PepT1 [3] of 440 ± 150 µM. In addition, on rabbit PepT1 [4], the “Trans-stimulated efflux?” value is reported as “No”.
The Papp is the rate of passage across a membrane or cell layer, normalised by area and donor concentration. `C[C@H](N)C(=S)N[C@@H](COC(=O)CC1(CN)CCCCC1)C(=O)O` [Compound 2, (S)-3-[2-(1-Aminomethyl-cyclohexyl)-acetoxy]-2-((S)-2-amino-thiopropionylamino)-propionic acid]: the Ki at rabbit PepT1 [3] was determined as 1010 ± 330 µM. For the same molecule, the “Trans-stimulated efflux?” value on rabbit PepT1 [4] was “Yes”. Further, in data set [7], the Papp at 1 h, 2 mM amounted to 0.6 ± 0.1 ×10⁻⁶ cm/s.
Usually melting point stands for the temperature of the solid-liquid transition. Molecule `C[C@H](N)C(=S)N[C@@H](COC(=O)C[C@@H](CN)c1ccc(Cl)cc1)C(=O)O` (as salt: salt) (hydrate or solvate) [Compound 10, (S)-3-((R)-4-amino-3-(4-chlorophenyl)butanoyloxy)-2-((S)-2-aminopropanethioamido)propanoic acid] returned a melting point of 112 to 115 °C.
For the molecule “(S)-2-((S)-2-Amino-thiopropionylamino)-succinic acid 4-(2-{2-[2-(2-acetoxy-benzoyloxy)-ethoxy]-ethoxy}-ethyl) ester [Compound 4]”, the “Stability in assay buffer” value in [8] was “limited stability”.
Turning to `C[C@H](NC(=O)[C@@H](N)Cc1c[nH]c2ccccc12)C(=O)O` [L-Trp-L-Ala, reference compound] (H-Trp-Ala-OH), the half-life at 0.5 mM in data set [5] was 0.15 h.
`CC(C)NC[C@@H](COc1ccc(CC(N)=O)cc1)OC(=O)C[C@H](NC(=S)[C@H](C)N)C(=O)O` (as salt: salt) [Compound 8, (S)-4-((S)-3-(4-(2-amino-2-oxoethyl)phenoxy)-1-(isopropylamino)propan-2-yloxy)-2-((S)-2-aminopropanethioamido)-4-oxobutanoic acid] showed a melting point of 118 to 121 °C.
For `COc1c(C)c2c(c(O)c1C/C=C(\C)CCC(=O)OC[C@H](NC(=S)[C@H](C)N)C(=O)O)C(=O)OC2` (as salt: salt) (hydrate or solvate) [Compound 11, (S)-2-((S)-2-aminopropanethioamido)-3-((E)-6-(4-hydroxy-6-methoxy-7-methyl-3-oxo-1,3-dihydroisobenzofuran-5-yl)-4-methylhex-4-enoyloxy)propanoic acid], the melting point is 140 to 143 °C.
`C[C@H](NC(=O)[C@@H](N)Cc1ccccc1)C(N)=S` [FSA, PheΨ[CS-NH]-Ala, reference compound] had a Ki on rabbit PepT1 [3] of 320 ± 80 µM. At rabbit PepT1 [4], the “Trans-stimulated efflux?” value is reported as “No”. Further, the Papp at 1 h, 2 mM in data set [7] was found to be 3 ± 0.5 ×10⁻⁶ cm/s.
At rabbit PepT1 [3], `CC(=O)N[C@H]1[C@H]([C@H](O)[C@H](O)COC(=O)C[C@H](NC(=S)[C@H](C)N)C(=O)O)OC(C(=O)O)=C[C@@H]1NC(=N)N` [Compound 9, (4S,5R,6R)-5-acetamido-6-((1R,2R)-3-((S)-3-((S)-2-aminopropanethioamido)-3-carboxypropanoyloxy)-1,2-dihydroxypropyl)-4-guanidino-5,6-dihydro-4H-pyran-2-carboxylic acid] yielded a Ki of 130 ± 20 µM. The “Trans-stimulated efflux?” value on rabbit PepT1 [4] was “No”.
Regarding “(S)-2-((S)-2-Amino-thiopropionylamino)-succinic acid 4-[2-(2-amino-6-oxo-1,6-dihydro-purin-9-ylmethoxy)-ethyl] ester [Compound 5]”, in data set [8], the “Stability in assay buffer” value is listed as “limited stability”.
The molecule `CC(=O)N[C@H]1[C@H]([C@H](O)[C@H](O)COC(=O)C[C@H](NC(=S)[C@H](C)N)C(=O)O)OC(C(=O)O)=C[C@@H]1NC(=N)N` (as salt: salt) (hydrate or solvate) [Compound 9, (4S,5R,6R)-5-acetamido-6-((1R,2R)-3-((S)-3-((S)-2-aminopropanethioamido)-3-carboxypropanoyloxy)-1,2-dihydroxypropyl)-4-guanidino-5,6-dihydro-4H-pyran-2-carboxylic acid] came in with a melting point of 210 to 212 °C.
In the case of `COc1ccc2cc(CC/C(C)=N/OCCOC(=O)C[C@H](NC(=S)[C@H](C)N)C(=O)O)ccc2c1` [Compound 6], on rabbit PepT1 [9], the “Trans-stimulated efflux?” value is given as “Yes”.
`CC(C)Cc1ccc([C@@H](C)C(=O)OC[C@H](NC(=S)[C@H](C)N)C(=O)O)cc1` [Compound 1] had a Ki on rabbit PepT1 [3] of 260 ± 30 µM. Further, at rabbit PepT1 [4], the “Trans-stimulated efflux?” value was “Yes”. Further, in [7], the Papp at 1 h, 2 mM was determined as 3.7 ± 0.2 ×10⁻⁶ cm/s. In addition, the half-life at 0.5 mM in data set [5] was more than 17 h. This molecule yielded an AUC in data set [6] (male, Sprague-Dawley, rat, plasma, po, 10 mg/kg) of 500 ± 100 ng·h/mL. The molecule also returned a Cmax in data set [6] (male, Sprague-Dawley, rat, plasma, po, 10 mg/kg, CMax, 1 at 10 mg kg^−1 oral, assayed compound intact 1) of 200 ± 40 ng/mL. Besides, in [6] (male, Sprague-Dawley, rat, plasma, po, 10 mg/kg, 1 at 10 mg kg^−1 oral, assayed compound intact 1), the Tmax was found to be 1 h.
The molecule `C[C@H](N)C(=S)N[C@@H](COC(=O)C[C@@H](CN)c1ccc(Cl)cc1)C(=O)O` [Compound 10, (S)-3-((R)-4-amino-3-(4-chlorophenyl)butanoyloxy)-2-((S)-2-aminopropanethioamido)propanoic acid] returned a Ki on rabbit PepT1 [3] of 1870 ± 260 µM. For the same molecule, the “Trans-stimulated efflux?” value at rabbit PepT1 [4] is recorded as “No”.
